Measured values as given in paper PMC7238130, “Improved Dissolution and Pharmacokinetics of Abiraterone through KinetiSol® Enabled Amorphous Solid Dispersions” (Pharmaceutics, 2020).
In brackets after ≈: the same amount, converted by molar mass.

Assays:
[1] = In vitro, non-sink, gastric transfer dissolution (0.01 N HCl then FaSSIF); type: physicochemical
Protocol: An in vitro, non-sink, gastric transfer dissolution method was developed to analyze the dissolution of abiraterone API, the generic abiraterone acetate tablets, the binary KSDs, to select ternary component for KSDs, as well as to analyze the dissolution of the ternary KSDs. For the dissolution analysis of abiraterone API and the binary and ternary KSDs, the samples (equivalent to 31 mg of abiraterone API) were loaded in an Erlenmeyer flask (dissolution vessel) containing 35 mL of 0.01N HCl (pH 2.0), placed in an incubator–shaker (Excella E24 (New Brunswick Scientific, Edison, NJ, USA)) set to 37 °C and a rotational speed of 180 rpm. After 30 min, 35 mL of FaSSIF (prepared in a 50 mM phosphate buffer at pH 6.8) was added to the dissolution vessel. At predetermined time points, samples were drawn from the dissolution vessel and centrifuged using an ultracentrifuge at 92,000 rpm for 90 s (Airfuge™, Beckman, Indianapolis, IN, USA). The supernatants were further diluted using the HPLC diluent and analyzed using the respective HPLC methods mentioned above. For the generic abiraterone acetate tablets, the whole tablet was analyzed, and the dissolution media volumes were scaled accordingly. For the selection of the ternary component, 35 mg of secondary polymer candidates were added in 35 mL of 0.01 N HCl (pH 2.0), and the dissolution of the binary KSD was conducted using the method described above. The area under the drug dissolution curve (AUDC) was calculated using the linear trapezoidal method.
For dissolution testing, we employed a two-stage, non-sink, gastric transfer dissolution method in which the sample is first exposed to acidic media, simulating fasted stomach content, followed by exposure to neutral-to-basic media, simulating fasted intestinal content.

[2] = parameters: method as in doi:10.1021/acs.jced.8b00566; conditions: cited from earlier work
[3] = parameters: method as in doi:10.1021/acs.jced.8b00566; conditions: cited from earlier work; remark: listed apart in the source
[4] = cited from earlier work; for FaSSIF solubility (converted): conversion of the µM value

SMILES | Percent Rel. AUDC0.01 N HCl (Relative to Lot 5 KSD) ([1]; 0.01 N HCl stage, 35 mg secondary polymer added externally where stated) | Percent Rel. AUDCTotal (Relative to Lot 5 KSD) ([1]; 35 mg secondary polymer added externally to 35 mL 0.01 N HCl where stated) | Percent Rel. AUDCFaSSIF (Relative to Lot 5 KSD) ([1]; FaSSIF stage, 35 mg secondary polymer added externally where stated) | solubility ([1]; pH 6.8, FaSSIF stage of gastric transfer dissolution, read-out: average drug concentration (solubility) in FaSSIF media) | water solubility [2] | BCS (Biopharmaceutical Classification System) class [3] | permeability [3] | FaSSIF solubility [4] | FaSSIF solubility (converted) [4]
C[C@]12CC[C@H](O)CC1=CC[C@@H]1[C@@H]2CC[C@]2(C)C(c3cccnc3)=CC[C@@H]12 [Abiraterone API, Abiraterone] | 1.8% | 8.4% | 46.2% | 11.3 µg/mL (≈ 32.4 µM) | 3.05 µg/mL (≈ 8.73 µM) | Class IV | low | 12.7 ± 4.2 µM | ~ 4.43 µg/mL
CC(=O)O[C@H]1CC[C@@]2(C)C(=CC[C@@H]3[C@@H]2CC[C@]2(C)C(c4cccnc4)=CC[C@@H]32)C1 [abiraterone acetate, Abiraterone acetate] | – | – | – | – | – | – | – | 64.6 ± 5.2 µM | ~ 25.29 µg/mL
